{"source": "paper PMC11249953", "about": "“c-KIT inhibitors reduce pathology and improve behavior in the Tg(SwDI) model of Alzheimer’s disease” (Life Science Alliance, 2024)", "origin": "cited, not measured here", "key": {"APPswe/PSEN1dE9 mice": {"tested_on": "APPswe/PSEN1dE9 mice", "parameters": "method as in Li et al, 2020", "conditions": "chronic oral treatment, ref Li et al, 2020; cited from earlier work"}, "c-KIT": {"tested_on": "c-KIT", "parameters": "method as in Dubreuil et al, 2009", "conditions": "ref Dubreuil et al, 2009; cited from earlier work"}, "[1]": {"conditions": "ref Li et al, 2020, cited from earlier work"}}, "note": "Like-named read-outs stand apart in the source and are kept apart here.", "data": [{"smiles": "Cc1ccc(NC(=O)c2ccc(CN3CCN(C)CC3)cc2)cc1Nc1nc(-c2cccnc2)cs1", "note": "[Masitinib]", "values": [{"measurement": "amyloid-β and neuroinflammation", "setting": "APPswe/PSEN1dE9 mice", "result": "not reducing amyloid-β or attenuating neuroinflammation"}, {"measurement": "spatial learning performance", "setting": "APPswe/PSEN1dE9 mice", "result": "reverse spatial learning performance"}, {"measurement": "IC50", "setting": "c-KIT", "result": "[…]"}, {"measurement": "brain penetrance", "setting": "[1]", "result": "poor brain penetrance"}, {"measurement": "brain penetrance", "setting": "[1]; listed as masitinib", "result": "poor brain penetrant"}]}]}
